Data on eleven molecules can be found in ChEMBL document CHEMBL1201862, “PubChem BioAssay data set” (2004).

Test systems include A498; COLO 205; EKVX; HCT-15; HL-60; HOP-62; LOX IMVI; MOLT-4; Malme-3M; NCI-H226; NCI-H23; NCI-H460; OVCAR-4; OVCAR-8; RXF 393; SF-268; SF-539; SK-MEL-5; SNB-19; NCI/ADR-RES.
Common to all, as to assay: NCI anticancer screen, dose series, 48 h

SMILES strings stand for the structures.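 Grown in 96-well plates, cells were treated for 48 hours with each compound at five concentrations. Insufficient inhibition: endpoint recorded as highest concentration tested. GI50 is the concentration that inhibits growth by half.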 The source made the active and inactive calls. No stated cut-off is given here; in the data, active = GI50 up to about 1.1 µM and inactive = higher.

Regarding `CCOC(=O)c1cn2c([nH]c3ccccc32)c(C#N)c1=O`, the GI50 in the experiment with A498 was > 100 µM (inactive); with COLO 205, 41.6 µM (inactive); with EKVX it was > 100 µM (inactive); in the experiment on HCT-15, more than 100 µM; in the experiment with HL-60 it was 25.8 µM (inactive); in the experiment on HOP-62, > 100 µM (inactive). Further, the GI50 was 25.7 µM (inactive) with LOX IMVI; > 100 µM (inactive) in the experiment on MOLT-4; > 100 µM (inactive) in the experiment with Malme-3M; > 100 µM (inactive) with NCI-H226; > 100 µM (inactive) in the experiment with NCI-H23; 47 µM (inactive) in the experiment on NCI-H460. Also, the GI50 in the experiment on OVCAR-4, in the experiment on OVCAR-8, in the experiment on RXF 393, in the experiment with SF-268, in the experiment with SF-539 and in the experiment on SK-MEL-5 was > 100 µM (inactive) in each case. Also, the GI50 with SNB-19 is > 100 µM (inactive).

Regarding `OC(c1cc2ccc(C(F)(F)F)cc2c2cc(C(F)(F)F)ccc12)C1CCCCN1` (stereo not given), the GI50 is 1.59 µM (inactive) in the experiment on COLO 205; 0.428 µM (active) in the experiment on EKVX; 1.79 µM with HCT-15; 31.4 µM (inactive) in the experiment on HL-60; 1.85 µM (inactive) in the experiment on HOP-62; 1.26 µM (inactive) in the experiment on LOX IMVI. Also, the GI50 in the experiment with MOLT-4 was 1.41 µM (inactive); with Malme-3M, 0.0498 µM (active); in the experiment on NCI-H23, 1.66 µM (inactive); in the experiment with NCI-H460 it was 1.95 µM (inactive); with NCI/ADR-RES, 1.82 µM (inactive); with OVCAR-4 it was 1.77 µM (inactive). Moreover, the GI50 is 1.64 µM (inactive) in the experiment on SF-268, 1.69 µM (inactive) with SF-539, 1.56 µM (inactive) with SK-MEL-5 and 1.84 µM (inactive) with SNB-19.

As to `CC(CC(=O)Nc1ccc(NC(=O)CC(C)/N=N\C(N)=O)cc1)/N=N\C(N)=O` (stereo not given), the GI50 in the experiment with A498 was > 100 µM (inactive); in the experiment with COLO 205, 34.8 µM (inactive); with EKVX, > 100 µM (inactive); in the experiment with HCT-15, 16.4 µM; in the experiment with HL-60 it was > 100 µM (inactive); in the experiment on HOP-62, > 100 µM (inactive). The GI50 was 24.7 µM (inactive) with LOX IMVI; > 100 µM (inactive) in the experiment on MOLT-4; > 100 µM (inactive) with Malme-3M; > 100 µM (inactive) in the experiment with NCI-H226; > 100 µM (inactive) with NCI-H23; 50.9 µM (inactive) in the experiment with NCI-H460. Further, the GI50 in the experiment with OVCAR-4, with OVCAR-8, in the experiment with RXF 393, in the experiment on SF-268, in the experiment on SF-539 and with SK-MEL-5 was > 100 µM (inactive) each time. Further, the GI50 with SNB-19 is > 100 µM (inactive).

In the case of `Nc1ccc(C(=O)/C=C/c2ccccc2O)cc1`, the GI50 with A498 is > 100 µM (inactive); with COLO 205 it was > 100 µM (inactive); with EKVX it was > 100 µM (inactive); in the experiment on HCT-15, more than 100 µM; with HL-60, > 100 µM (inactive); in the experiment on HOP-62, > 100 µM (inactive). Moreover, the GI50 in the experiment with LOX IMVI, in the experiment with MOLT-4, in the experiment on Malme-3M, in the experiment on NCI-H226, in the experiment with NCI-H23 and in the experiment with NCI-H460 was > 100 µM (inactive) in each case. Besides, the GI50 in the experiment on OVCAR-4, with OVCAR-8, with RXF 393, in the experiment on SF-268, in the experiment on SF-539 and in the experiment on SK-MEL-5 was > 100 µM (inactive) throughout. Further, the GI50 with SNB-19 is > 100 µM (inactive).

On to `Cc1[nH]c2ccccc2c1C1Cc2ccccc2N1C(=O)/C=C/C=C/c1ccccc1` (stereo not given), for which the GI50 in the experiment on A498 was > 100 µM (inactive); in the experiment with COLO 205 it was > 100 µM (inactive); in the experiment on EKVX, > 100 µM (inactive); in the experiment with HCT-15, more than 100 µM; with HL-60, 27.5 µM (inactive); in the experiment on HOP-62, > 100 µM (inactive). Also, the GI50 with LOX IMVI is > 100 µM (inactive); in the experiment with MOLT-4, 12.7 µM (inactive); in the experiment with Malme-3M it was > 100 µM (inactive); in the experiment on NCI-H226, > 100 µM (inactive); in the experiment with NCI-H23 it was > 100 µM (inactive); in the experiment on NCI-H460, > 100 µM (inactive). Moreover, the GI50 in the experiment on OVCAR-4 is 24.3 µM (inactive); with OVCAR-8 it was > 100 µM (inactive); with RXF 393, > 100 µM (inactive); in the experiment with SF-539, > 100 µM (inactive); with SK-MEL-5, > 100 µM (inactive); in the experiment on SNB-19, > 100 µM (inactive).

Consider `O=C(CC(=O)C1CCOC1=O)C(=O)Nc1ccc(Cl)cc1` (stereo not given), for which the GI50 was > 100 µM (inactive) in the experiment with A498; > 100 µM (inactive) in the experiment on COLO 205; > 100 µM (inactive) in the experiment on EKVX; more than 100 µM with HCT-15; > 100 µM (inactive) with HL-60; > 100 µM (inactive) with HOP-62. In addition, the GI50 in the experiment with LOX IMVI, with Malme-3M, with NCI-H226, with NCI-H23, in the experiment with NCI-H460 and with OVCAR-4 was > 100 µM (inactive) in each case. Also, the GI50 with OVCAR-8, in the experiment with RXF 393, with SF-268, in the experiment on SF-539, in the experiment with SK-MEL-5 and in the experiment with SNB-19 was > 100 µM (inactive) each time.

Turning to `CC1CCC(C(C)C)C(OC(=O)NCn2cc(-c3ccccc3)nn2)C1` (stereo not given), the GI50 in the experiment with COLO 205 is > 100 µM (inactive); in the experiment with EKVX, > 100 µM (inactive); in the experiment with HCT-15, more than 100 µM; in the experiment with HL-60, > 100 µM (inactive); in the experiment on HOP-62, 25.6 µM (inactive); with LOX IMVI, > 100 µM (inactive). For the same molecule, the GI50 with Malme-3M is > 100 µM (inactive); with NCI-H226 it was 75.2 µM (inactive); with NCI-H23, > 100 µM (inactive); in the experiment on NCI-H460, > 100 µM (inactive); in the experiment on NCI/ADR-RES, > 100 µM (inactive); with OVCAR-4, 57.8 µM (inactive). In addition, the GI50 in the experiment with OVCAR-8 is 75.5 µM (inactive); with SF-268 it was 58.7 µM (inactive); in the experiment on SF-539, 48.3 µM (inactive); in the experiment with SK-MEL-5 it was > 100 µM (inactive); in the experiment on SNB-19, 33.9 µM (inactive).

Turning to `O=C1CCCC/C1=C1\C(=O)Nc2cc(F)ccc21`, the GI50 in the experiment on A498 was > 100 µM (inactive); in the experiment on COLO 205, > 100 µM (inactive); with EKVX, > 100 µM (inactive); in the experiment with HCT-15, more than 100 µM; in the experiment with HL-60, > 100 µM (inactive); with HOP-62, > 100 µM (inactive). Further, the GI50 with LOX IMVI, in the experiment with MOLT-4, in the experiment on Malme-3M, in the experiment with NCI-H226, in the experiment with NCI-H23 and with NCI-H460 was > 100 µM (inactive) in each case. The GI50 in the experiment on OVCAR-4, in the experiment on OVCAR-8, in the experiment with RXF 393, in the experiment with SF-268, in the experiment with SF-539 and with SK-MEL-5 was > 100 µM (inactive) throughout. Besides, the GI50 in the experiment on SNB-19 is > 100 µM (inactive).

As to `COc1ccc(CN2CC(C)(C)C2=O)c(OC)c1`, the GI50 was > 100 µM (inactive) with A498; > 100 µM (inactive) in the experiment with COLO 205; > 100 µM (inactive) with EKVX; more than 100 µM in the experiment with HCT-15; > 100 µM (inactive) with HL-60; > 100 µM (inactive) in the experiment with HOP-62. In addition, the GI50 in the experiment on LOX IMVI, with MOLT-4, in the experiment on Malme-3M, with NCI-H226, in the experiment with NCI-H23 and in the experiment on NCI-H460 was > 100 µM (inactive) each time. The GI50 with OVCAR-4, in the experiment on OVCAR-8, with RXF 393, in the experiment with SF-268, with SF-539 and in the experiment on SK-MEL-5 was > 100 µM (inactive) throughout. In addition, the GI50 with SNB-19 is > 100 µM (inactive).

For the molecule `O=C(O)c1ccc(O)c(/N=N/c2cc(S(=O)(=O)O)c3ccccc3c2O)c1`, the GI50 in the experiment with A498 is > 100 µM (inactive); in the experiment on COLO 205 it was 39.8 µM (inactive); with EKVX it was 23.3 µM (inactive); with HCT-15 it was more than 10 µM; in the experiment on HL-60, > 100 µM (inactive); in the experiment with HOP-62 it was 19.6 µM (inactive). Besides, the GI50 with LOX IMVI is > 100 µM (inactive); in the experiment with MOLT-4, > 100 µM (inactive); in the experiment with Malme-3M it was > 100 µM (inactive); in the experiment with NCI-H226, > 100 µM (inactive); in the experiment with NCI-H23 it was > 100 µM (inactive); in the experiment on NCI-H460, 37.2 µM (inactive). Further, the GI50 with OVCAR-4 was > 100 µM (inactive); in the experiment on OVCAR-8, > 100 µM (inactive); in the experiment with RXF 393, > 100 µM (inactive); in the experiment with SF-268, > 10 µM (inactive); with SF-539, > 10 µM (inactive); in the experiment with SK-MEL-5, > 100 µM (inactive). Besides, the GI50 in the experiment on SNB-19 was > 100 µM (inactive).

For the molecule `CCOC(=O)NC(=O)c1cn(C2OC(CO)C(O)C2O)c(=O)[nH]c1=O` (stereo not given), the GI50 is > 100 µM (inactive) in the experiment on A498; > 100 µM (inactive) in the experiment on EKVX; more than 100 µM in the experiment with HCT-15; > 100 µM (inactive) with HL-60; > 100 µM (inactive) with HOP-62; > 100 µM (inactive) in the experiment with LOX IMVI. Also, the GI50 with MOLT-4, in the experiment on Malme-3M, in the experiment on NCI-H226, in the experiment on NCI-H460, with OVCAR-4 and in the experiment with OVCAR-8 was > 100 µM (inactive) throughout. Besides, the GI50 in the experiment on RXF 393, in the experiment on SF-268, in the experiment on SF-539, in the experiment on SK-MEL-5 and with SNB-19 was > 100 µM (inactive) each time.
